In brackets after ≈: the same amount, converted by molar mass. Structures can show the parent of a compound that is named as a salt. Where two headings read alike, the source gives them in different places.
How the values were obtained:
H37RvMA = assay: Tuberculosis Alamar Blue/Resazurin assay (MIC); assay type: cell-based; details: Mycobacterium tuberculosis, H37RV, read-out: WT H37Rv MTB Activity
E. coli = assay: Gram negative MIC protocol (OD600, LB, 24 h); details: Escherichia coli
Protocol: (§1) Overnight bacterial cultures were grown in LB with no added antibiotics at 37° C. with shaking. A 1:1000 dilution of these cultures into LB was exposed to concentration gradients of compounds in 96-well plates (100 μL per well assay volume). Resulting plates were incubated at 37° C. for 24 h without shaking, and OD600 was measured at the end of the incubation. MICs were determined as the lowest concentrations at which OD600 remained at baseline.

A. baumannii = assay: Gram negative MIC protocol (OD600, LB, 24 h); details: Acinetobacter baumannii
Protocol: as §1

[1] = read-out: MIC E. coli delta-TolC LB Media, E. coli delta-TolC, LB media, OD600
[2] = read-out: MIC WT E. coli LB Media, WT E. coli, LB media, OD600
[3] = read-out: MIC A. baumannii LB Media, A. baumannii, LB media, 24 h, OD600
[4] = read-out: MIC A. baumannii LB Media

SMILES | MIC (H37RvMA; WT H37Rv MTB) | MIC (E. coli; [1]) | MIC (E. coli; [2]) | MIC (A. baumannii; [3]) | MIC (H37RvMA) | MIC (A. baumannii; [4])
COc1ccc2c(c1)CCCC2CNCc1ccccc1 (stereo not drawn) [B112] | > 150 µM | > 150 µM | > 150 µM | > 150 µM |  | 
C[C@H](NCc1ccccc1)C1CCCc2ccccc21 (stereo partly drawn) [B113] | > 150 µM | > 150 µM | > 150 µM | > 150 µM |  | 
c1ccc(CNCCc2ccc3cc[nH]c3c2)cc1 [B114] |  | > 150 µM | > 150 µM |  | > 150 µM | > 150 µM
c1ccc(CNCCc2ccc3[nH]ncc3c2)cc1 [B115] | > 150 µM | > 150 µM | > 150 µM | > 150 µM |  | 
CN1CC2CCC1C(CNCc1ccccc1)C2 (stereo not drawn) [B116] |  | > 150 µM | > 150 µM | > 150 µM | > 150 µM | 
Cc1ccc2ncc(CCNCc3ccccc3)cc2c1 [B117] | > 150 µM | > 150 µM | > 150 µM | > 150 µM |  | 
c1ccc(CNCCC2CSc3ccccc3O2)cc1 (stereo not drawn) [B118] | > 150 µM | > 150 µM | > 150 µM | > 150 µM |  | 
c1ccc(CNCCc2ccnc3ccccc23)cc1 [B119] | > 150 µM | > 150 µM | > 150 µM | > 150 µM |  | 
FC1(F)Oc2ccc(CCNCc3ccccc3)cc2O1 [B120] |  | > 150 µM | > 150 µM |  | > 150 µM | > 150 µM
c1ccc(CNCCN2CCC3(CCCCC3)CC2)cc1 [B121] | > 150 µM | > 150 µM | > 150 µM | > 150 µM |  | 
C1=CC2CCC1CC2CNCc1ccccc1 (stereo not drawn) [B122] | 150 µM (≈ 34.1 µg/mL) | > 150 µM | > 150 µM | > 150 µM |  | 
c1ccc(CNCC2CC3CCC2CC3)cc1 (stereo not drawn) [B123] | 150 µM (≈ 34.4 µg/mL) | > 150 µM | > 150 µM | > 150 µM |  | 
c1ccc(CNCCN2CCCC3CCCCC32)cc1 (stereo not drawn) [B124] | > 150 µM | > 150 µM | > 150 µM | > 150 µM |  | 
c1ccc(CNC2CC23CCCCC3)cc1 (stereo not drawn) [B125] | > 150 µM | > 150 µM | > 150 µM | > 150 µM |  | 
c1ccc(CNCCN2CCCC3CCCC32)cc1 (stereo not drawn) [B126] | > 150 µM | > 150 µM | > 150 µM | > 150 µM |  | 
c1ccc(CNCC2CCCc3ccccc32)cc1 (stereo not drawn) [B127] | 150 µM (≈ 37.7 µg/mL) | > 150 µM | > 150 µM | > 150 µM |  | 
c1ccc(CNCCC2CCCC2)cc1 [B128] | > 150 µM | > 150 µM | > 150 µM | > 150 µM |  | 
c1ccc(CNCCN2CCc3ccccc3C2)cc1 [B129] | > 150 µM | > 150 µM | > 150 µM | > 150 µM |  | 
CC(CNCc1ccccc1)N1CCc2ccccc2C1 (stereo not drawn) [B130] | > 150 µM | > 150 µM | > 150 µM | > 150 µM |  | 
CCC(CNCc1ccccc1)N1CCc2ccccc2C1 (stereo not drawn) [B131] | > 150 µM | > 150 µM | > 150 µM | > 150 µM |  | 
c1ccc(CNCCC2CCCCC2)cc1 [B132] | > 150 µM | 85 µM (≈ 18.5 µg/mL) | 124 µM (≈ 27 µg/mL) | 150 µM (≈ 32.6 µg/mL) |  | 
c1ccc(CNCCc2ccc3ccccc3c2)cc1 [B133] | 55 µM (≈ 14.4 µg/mL) | > 150 µM | > 150 µM | > 150 µM |  | 
CC(NCc1ccccc1)C1CCCCC1 (stereo not drawn) [B134] | > 150 µM | > 150 µM | 120 µM (≈ 26.1 µg/mL) | > 150 µM |  | 
c1ccc(CNCC2CCC2)cc1 [B135] | > 150 µM | > 150 µM | > 150 µM | > 150 µM |  | 

SMILES | MIC (H37RvMA; WT H37Rv MTB) | MIC (E. coli; [1]) | MIC (E. coli; [2]) | MIC (A. baumannii; [3]) | MIC (H37RvMA) | MIC (A. baumannii; [4])
CC(C)CNCc1ccccc1 [B136] | > 150 µM | > 150 µM | > 150 µM | > 150 µM |  | 
Cc1ccc(CNC2CCCCC2)cc1 [B137] | > 150 µM | > 150 µM | > 150 µM | > 150 µM |  | 
OC(CNCc1ccccc1)c1ccc2ccccc2c1 (stereo not drawn) [B138] | > 150 µM | > 150 µM | > 150 µM | > 150 µM |  | 
CN1CCC(CNCc2ccccc2)c2ccccc21 (stereo not drawn) [B139] | > 150 µM | > 150 µM | > 150 µM | > 150 µM |  | 
c1ccc(CNCCN2CCc3sccc3C2)cc1 [B140] | > 150 µM | > 150 µM | > 150 µM | > 150 µM |  | 
c1ccc(CNCC2CCCC2)cc1 [B141] | > 150 µM | > 150 µM | > 150 µM | > 150 µM |  | 
CC1CCC(NCc2ccccc2)CC1 (stereo not drawn) [B142] | > 150 µM | > 150 µM | > 150 µM | > 150 µM |  | 
COc1cccc(CNCCC2=CCCCC2)c1 [B143] | > 150 µM | > 150 µM | > 150 µM | > 150 µM |  | 
Fc1ccc(CNCCC2=CCCCC2)cc1F [B144] | > 150 µM | > 150 µM | > 150 µM | > 150 µM |  | 
CC1CCc2ccccc2N1CCNCc1ccccc1 (stereo not drawn) [B145] | 91 µM (≈ 25.5 µg/mL) | > 150 µM | > 150 µM | > 150 µM |  | 
c1ccc(CNCCC2CC3CCC2C3)cc1 (stereo not drawn) [B146] | > 150 µM | 90 µM (≈ 20.6 µg/mL) | 150 µM (≈ 34.4 µg/mL) | 150 µM (≈ 34.4 µg/mL) |  | 
COc1cc2c(cc1OC)CN(CCNCc1ccccc1)CC2 [B147] | > 150 µM | > 150 µM | > 150 µM | > 150 µM |  | 
c1ccc(CNCCN2CCCc3ccccc32)cc1 [B148] | 150 µM (≈ 40 µg/mL) | > 150 µM | > 150 µM | > 150 µM |  | 
CC(NCc1ccccc1)C1(C)CC1 (stereo not drawn) [B149] | > 150 µM | > 150 µM | > 150 µM | > 150 µM |  | 
CCCCCCCCNCc1ccccc1 [B150] | > 150 µM | > 150 µM | > 150 µM | > 150 µM |  | 
C1=C(CCNCCc2ccccc2)CCCC1 [B151] |  | > 150 µM | > 150 µM | > 150 µM | > 150 µM | 
C1=C(CCNCc2cccs2)CCCC1 [B152] | > 150 µM | > 150 µM | > 150 µM | > 150 µM |  | 
c1ccc(CNCCc2ccc3c(c2)OCO3)cc1 [B154] |  | > 150 µM | > 150 µM |  | > 150 µM | > 150 µM
c1ccc(CNCCc2ccc3ccccc3n2)cc1 [B155] | > 150 µM | > 150 µM | > 150 µM | > 150 µM |  | 
C1=CCC(CCNCc2ccccc2)CC1 (stereo not drawn) [B156, N-benzyl-2-(cyclohex-3-enyl)ethanamine hydrochloride] |  | 150 µM | 150 µM |  | > 150 µM | 150 µM
CC(CC1CC=CCC1)NCc1ccccc1 (stereo not drawn) [B157, N-benzyl-1-(cyclohex-3-enyl)propan-2-amine] |  | 11 µM (≈ 2.52 µg/mL) | 20 µM (≈ 4.59 µg/mL) |  | 91 µM (≈ 20.9 µg/mL) | 55 µM (≈ 12.6 µg/mL)
OB1OCc2ccc(CNCc3ccccc3)cc21 [B158, 6-((benzylamino)methyl)benzo[c][1,2]oxaborol-1(3H)-ol] | > 150 µM | > 150 µM | > 150 µM | > 150 µM |  | 
C1=CC(CCNCc2ccccc2)CCC1 (stereo not drawn) [B160] |  | > 150 µM | > 150 µM |  | > 150 µM | > 150 µM
C1=C(CC2CCCN2Cc2ccccc2)CCCC1 (stereo not drawn) [B161] | > 150 µM | > 300 µM | > 300 µM | > 150 µM |  | 

Reference: US11261201B2 (priority 2018, dated 2022)
